Experimental data taken from patent publication US20230110128A1, “USE OF ANTIBODY DRUG CONJUGATES COMPRISING TUBULIN DISRUPTING AGENTS TO TREAT SOLID TUMOR” (Seagen Inc., priority 2018, published 2023).

Key:
MCF7 breast cancer cells = test: Western blot analysis of ER stress response in MCF7 cells; assay type: cell-based; settings: FIG. 16A
Description: MCF7 breast cancer cells were treated with 100 nM MMAE for 16 hours and harvested RIPA buffer for western blot analysis.
MCF7 cells were treated with MMAE or an MMAE-containing ADC (SGN-LIV1A) for 16 hours and harvested in […] for western bot analysis. […] Induction of ICD is also characterized by the secretion of ATP and HMGB1. Extracellular ATP serves as a strong chemotactic signal, promoting immune cell migration to the tumor site. Upon arrival, extracellular HMGB1 signals through various pro-inflammatory receptors (TLR2, TLR4, RAGE) to activate antigen-presenting cells, thereby promoting immune activity within the tumor.

MCF7 cells = test: ATP secretion from MCF7 cells; assay type: cell-based; settings: after 48 hours of treatment
[1] = tested on: MiaPaca-CHOP-luciferase cells; test: CHOP-driven luciferase reporter assay of severe ER stress; assay type: cell-based; settings: after 16 hours
Description: Severe ER stress leads to upregulation of CHOP, and initiates mitochondrial apoptosis. MiaPaca2 pancreatic tumor cells were engineered to express a CHOP-driven luciferase reporter system (purchased from Signosis, Inc.) that allows for quantifiable monitoring of severe ER stress. MiaPaca-CHOP-luciferase cells were treated with MMAE, vincristine, and Paclitaxel, and assayed for luciferase expression after 16 hours.

[2] = tested on: MiaPaca-CHOP-luciferase cells subcutaneously engrafted; test: Tumoral CHOP luciferase signal in engrafted MiaPaca-CHOP-luciferase tumors; assay type: in vivo, NOD/SCID/gamma-chain deficient mice; settings: intratumorally; MMAE 0.36 mg/kg, vincristine 1.0 mg/kg, Paclitaxel 10 mg/kg
Description: MiaPaca-CHOP-luciferase cells were subcutaneously engrafted into NOD/SCID/gamma-chain deficient mice. Subcutaneous tumors were treated intratumorally with MMAE (0.36 mg/kg), vincristine (1.0 mg/kg), and Paclitaxel (10 mg/kg) and tumoral luciferase signal was monitored over time.

MiaPaca2 cells = test: ATP secretion from MiaPaca2 cells; assay type: cell-based; settings: supernatant after 16 hours
Description: MiaPaca2 cells were treated with MMAE, Vincristine, or Paclitaxel. Supernatant was collected after 16 hours of treatment, and analyzed for ATP secretion.

[3] = tested on: PC-3 prostate tumor cells; test: ATP secretion from PC-3 cells; assay type: cell-based; settings: supernatant after 16 hours
Description: PC-3 prostate tumor cells were also treated with MMAE, Vincristine, or Paclitaxel. Supernatant was collected after 16 hours of treatment, and analyzed for ATP secretion. […] PC-3 cells were treated for 24 hours with an MMAE-containing ADC (SGN-LIV1A) or MMAE and harvested in RIPA buffer for western blot analysis (FIG. 3C).

[4] = tested on: HeLa cervical cancer cells; test: Western blot analysis of ER stress in HeLa cells; assay type: cell-based; settings: 1000 nM or 100 nM, 16 hours
Description: HeLa cervical cancer cells were treated with 1000 nM or 100 nM MMAE, Vincristine, or Paclitaxel for 16 hours and harvested for western blot analysis.

[5] = tested on: A2058, SK-MEL-5, SK-MEL-28 (skin) cell lines; test: ATP secretion in skin cell lines; assay type: cell-based; settings: A2058, SK-MEL-5, SK-MEL-28, after 17 hours
Description: (§1) Skin tumor lines A2058, SK-MEL-5 and SK-MEL-28, Calu-1 (lung), HT-1080 (fibrosarcoma), SK-MES-1 (lung), and BXPC3 (pancreas) cells were treated with MMAE, vincristine, and Paclitaxel. Supernatant was collected after 17 hours of treatment, and analyzed for ATP secretion.

[6] = tested on: A2058, SK-MEL-5, SK-MEL-28, Calu-1, HT-1080, SK-MES-1, BXPC3 and HPAFII cells; test: HMGB1 release by ELISA in a panel of solid tumor cell lines; assay type: cell-based; settings: supernatant after one night of treatment
Description: A2058, SK-MEL-5, SK-MEL-28 (skin), Calu-1, HT-1080, SK-MES-1 (lung), and BXPC3 and HPAFII (pancreas) cells were treated with an MMAE-containing ADC (e.g., anti-p97-MMAE or anti-CD71-MMAE) or Paclitaxel. Supernatant was collected after one night of treatment, and analyzed for HMGB1 release by ELISA. […] See, e.g., FIG. 70 and additional description below.

[7] = tested on: BxPC3 and HPAFII (pancreas) cells co-cultured with macrophages; test: Macrophage antigen presentation after co-culture with treated pancreas tumor cells; assay type: cell-based; settings: BxPC3 and HPAFII treated 24 hours; macrophages harvested 4 days after co-culture
Description: Macrophages were enriched from PBMCs from 2 healthy donors by adhering PBMCs to cell culture-grade plastic. Non-adherent cells were removed 24 hours later, leaving a population of cells enriched for macrophages.
BxPC3 and HPAFII (pancreas) cells were treated with MMAE, vincristine, and Paclitaxel for 24 hours. Cells were washed and harvested, and subsequently co-cultured with the enriched macrophages prepared above. Macrophages were harvested 4 days after co-culture and assayed for immune activation by flow cytometry. Level of antigen-presentation (as measured by frequency of MHCII-expressing cells) was quantified and normalized to macrophages that were co-cultured with untreated tumor cells.

BxPC-3 cells = test: ATP secretion from BxPC-3 cells; assay type: cell-based; settings: 17 hours
[8] = tested on: Hep3b, Huh7, and JHH7 cells; test: ATP secretion from liver tumor lines; assay type: cell-based; settings: Huh7, JHH7, 24 hours
Description: (§2) Liver tumor lines Hep3b, Huh7, and JHH7 cells were treated with MMAE, Tubulysin M, vincristine, and Paclitaxel for 24 hours and analyzed for ATP secretion. […] Cells were washed and harvested, and subsequently co-cultured with enriched macrophages prepared as above. Macrophages were harvested 4 days after co-culture and assayed for immune activation by flow cytometry. Levels of costimulation (as measured by CD86 expression, JHH7) and antigen-presentation (as measured by frequency of MHCII-expressing cells, Hep3b, Huh7, and JHH7) were quantified and normalized to macrophages that were co-cultured with […]. […] Supernatant from the co-culture of macrophages and dying liver tumor cells was harvested 24 hours later and assayed for levels of cytokine and chemokine production by ELISA and normalized to macrophages that were co-cultured with untreated tumor cells.

[9] = tested on: Hep3b, Huh7, and JHH7 cells co-cultured with macrophages; test: Cytokine and chemokine production in macrophage co-culture with treated liver tumor cells; assay type: cell-based; settings: Huh7, JHH7 co-culture supernatant 24 hours, ELISA, normalized to untreated
Description: as §2

[10] = tested on: A2058, SK-MEL-5, SK-MEL-28, Calu-1, HT-1080, SK-MES-1 and BXPC3 cells; test: ATP secretion in a panel of solid tumor cell lines; assay type: cell-based; settings: 7 cell lines, supernatant after 17 hours
Description: as §1

MDA-MB-468 cells = test: ATP secretion from MDA-MB-468 cells; assay type: cell-based; settings: supernatant after 48 hours
Description: MDA-MB-468 cells were treated with MMAE or an MMAE-containing ADC (ASG-22ME). Supernatant was collected after 48 hours of treatment, and analyzed for ATP secretion.

T-24 (bladder) cells = test: ATP secretion from T-24 cells; assay type: cell-based; settings: 48 hours
Description: (§3) T-24 (bladder) cells were treated with MMAE or an MMAE-containing ADC (ASG-22ME) for 48 hours and analyzed for ATP secretion. […] T-24 cells were also treated with MMAE, an MMAE-containing ADC (ASG22ME, Enfortumab vedotin), vincristine, and Paclitaxel for 24 hours. Cells were washed and harvested, and subsequently co-cultured with the enriched macrophages as above. Macrophages were harvested 4 days after co-culture and assayed for immune activation by flow cytometry. Level of antigen-presentation (as measured by frequency of MHCII-expressing macrophages) was quantified and normalized to macrophages that were co-cultured with untreated tumor cells. […] Supernatant from the co-culture of macrophages and dying T-24 tumor cells was harvested after 24 hours and assayed for levels of cytokine and chemokine production by ELISA and normalized to macrophages that were co-cultured with untreated tumor cells.

[11] = tested on: T-24 cells co-cultured with macrophages; test: Macrophage antigen presentation after co-culture with treated T-24 cells; assay type: cell-based; settings: T-24 treated 24 hours; macrophages harvested 4 days after co-culture
Description: as §3

[12] = tested on: T-24 tumor cells co-cultured with macrophages; test: Cytokine and chemokine production in macrophage co-culture with treated T-24 cells; assay type: cell-based; settings: T-24 co-culture supernatant after 24 hours, ELISA, normalized to untreated
Description: as §3

Compound | Severe ER stress (phosphorylation of IRE1 and JNK) (MCF7 breast cancer cells) | ATP secretion (MCF7 cells) | Luciferase signal as a proxy of severe ER stress induction [1] | Severe ER stress in engrafted tumors (tumoral luciferase signal over time) [2] | ATP secretion [3] | ER stress responses (phosphorylation of IRE1) [4] | Antigen-presentation (frequency of MHCII-expressing cells) [7] | ATP secretion (BxPC-3 cells) | other results
CC(=O)O[C@@]12CO[C@@H]1C[C@H](O)[C@@]1(C)C(=O)[C@H](O)C3=C(C)[C@@H](OC(=O)[C@H](O)[C@@H](NC(=O)OC(C)(C)C)c4ccccc4)C[C@@](O)([C@@H](OC(=O)c4ccccc4)[C@H]21)C3(C)C [Docetaxel, docetaxel, reference compound] | do not elicit JNK phosphorylation | neither Paclitaxel nor Docetaxel elicited ATP secretion |  |  |  |  |  |  | 
CC(=O)O[C@H]1C(=O)[C@@]2(C)[C@H]([C@H](OC(=O)c3ccccc3)[C@]3(O)C[C@H](OC(=O)[C@H](O)[C@@H](NC(=O)c4ccccc4)c4ccccc4)C(C)=C1C3(C)C)[C@]1(OC(C)=O)CO[C@@H]1C[C@@H]2O [Paclitaxel, paclitaxel] | do not elicit JNK phosphorylation | neither Paclitaxel nor Docetaxel elicited ATP secretion | modest luciferase signal at the peak doses | does not induce ER stress | modest ATP secretion | activated ER stress responses | did not lead to changes in macrophage antigen-presentation | equivalent levels of ATP secretion | ATP secretion (MiaPaca2 cells): modest ATP secretion; Severe ER stress response (phosphorylation of JNK) [4]: Robust JNK phosphorylation was not seen with lower doses; ATP secretion (skin cell lines responding) [5]: ATP secretion from only 1 of 3 cell lines; HMGB1 release (cell lines responding) [6]: HMGB1 release in most of the cell lines assayed (5/7)
CC[C@H](C)[C@H](NC(=O)[C@H]1CCCCN1C)C(=O)N(C)[C@H](C[C@@H](OC(C)=O)c1nc(C(=O)N[C@@H](Cc2ccccc2)C[C@H](C)C(=O)O)cs1)C(C)C [Tubulysin M, tubulysin M, reference compound] |  |  |  |  |  |  |  |  | ATP secretion (cell lines responding) [8]: potent ATP secretion from 3 of 3 cell lines evaluated; Cytokine and chemokine production [9]: increase of the indicated cytokines and chemokines that was more robust than treatment with Paclitaxel
C=C1C[C@@H]2CC[C@@]34C[C@H]5O[C@H]6[C@@H](O3)[C@H]3O[C@H](CC[C@@H]3O[C@H]6[C@H]5O4)CC(=O)C[C@@H]3[C@@H](OC)[C@@H](C[C@H](O)CN)O[C@H]3C[C@H]3O[C@@H](CC[C@@H]1O2)C[C@@H](C)C3=C [eribulin, reference compound] | elicits severe ER stress (phosphorylation of IRE1 and JNK) | Increased AIR secretion |  |  |  |  |  |  | 
CC[C@]1(O)C[C@H]2CN(CCc3c([nH]c4ccccc34)[C@@](C(=O)OC)(c3cc4c(cc3OC)N(C=O)[C@H]3[C@@](O)(C(=O)OC)[C@H](OC(C)=O)[C@]5(CC)C=CCN6CC[C@]43[C@@H]65)C2)C1 [vincristine] |  |  | dose-dependent increase in luciferase signal | rapidly elicited severe ER stress | robust ATP secretion | activated ER stress responses | increase in antigen-presentation in 1/2 tumor cell lines | equivalent levels of ATP secretion | ATP secretion (cell lines responding) [10]: ATP secretion in most of the cell lines assayed (6/7); ATP secretion response compared with Paclitaxel [10]: more robust response than Paclitaxel in all cell lines assayed
ASG-22ME |  |  |  |  |  |  |  |  | ATP secretion (MDA-MB-468 cells): robust ATP secretion that was comparable to thapsigargin; ATP secretion (T-24 (bladder) cells): potent ATP secretion; Macrophage antigen presentation (frequency of MHCII-expressing macrophages) [11]: increase in macrophage antigen presentation that was more robust than treatment with Paclitaxel; Cytokine and chemokine production [12]: increase of the indicated cytokines and chemokines that was more robust than treatment with Paclitaxel
